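Cells were grown in 96-well plates and exposed to each compound for 48 hours at five concentrations; endpoints were interpolated linearly between bracketing concentrations, or set to the highest concentration if not reached. GI50: concentration for 50% inhibition of growth.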 The source made the active and inactive calls. Cut-off read from the data, not from the text of the source: active = GI50 up to about 1.1 µM and inactive = higher.
What was measured:
Assay in all cases: NCI-60 cell line screen, 48 h
OVCAR-4 = system: OVCAR-4
K562 = system: K562
HCT-15 = system: HCT-15
M14 = system: M14
UO-31 = system: UO-31
RXF 393 = system: RXF 393
OVCAR-5 = system: OVCAR-5
A498 = system: A498
SK-MEL-28 = system: SK-MEL-28
NCI-H23 = system: NCI-H23
NCI-H226 = system: NCI-H226
CCRF-CEM = system: CCRF-CEM
IGROV-1 = system: IGROV-1
SNB-75 = system: SNB-75
MOLT-4 = system: MOLT-4
XF498 = system: XF498
OVCAR-3 = system: OVCAR-3
SK-MEL-2 = system: SK-MEL-2
SK-OV-3 = system: SK-OV-3
SNB-78 = system: SNB-78
RXF 631 = system: RXF 631
SNB-19 = system: SNB-19
NCI-H522 = system: NCI-H522
SF-268 = system: SF-268
HOP-18 = system: HOP-18
DMS-114 = system: DMS-114
CAKI-1 = system: CAKI-1
HOP-62 = system: HOP-62
A549 = system: A549
M19-MEL = system: M19-MEL
HL-60 = system: HL-60
UACC-257 = system: UACC-257
SK-MEL-5 = system: SK-MEL-5
HCC 2998 = system: HCC 2998
HOP-92 = system: HOP-92
EKVX = system: EKVX
TK-10 = system: TK-10
KM-20L2 = system: KM-20L2
NCI-H460 = system: NCI-H460
COLO 205 = system: COLO 205
SF-539 = system: SF-539
HT-29 = system: HT-29
Malme-3M = system: Malme-3M
SR = system: SR
SW-620 = system: SW-620
LOX IMVI = system: LOX IMVI
UACC-62 = system: UACC-62
RPMI-8226 = system: RPMI-8226
ACHN = system: ACHN
SN12C = system: SN12C
U-251 = system: U-251
DMS-273 = system: DMS-273
DLD-1 = system: DLD-1
LXFL 529 = system: LXFL 529
786-0 = system: 786-0

| Structure (SMILES) | GI50 (OVCAR-4) | GI50 (K562) | GI50 (HCT-15) [µM] | GI50 (UO-31) | GI50 (A498) | GI50 (SK-MEL-28) | GI50 (NCI-H23) | GI50 (CCRF-CEM) | GI50 (IGROV-1) | GI50 (SNB-75) | GI50 (MOLT-4) | GI50 (XF498) | GI50 (SK-MEL-2) | GI50 (RXF 631) | GI50 (SNB-19) | GI50 (HOP-62) | GI50 (A549) | GI50 (M19-MEL) | GI50 (HL-60) | GI50 (UACC-257) | further results |
| --- | --- | --- | --- | --- | --- | --- | --- | --- | --- | --- | --- | --- | --- | --- | --- | --- | --- | --- | --- | --- | --- |
| COc1cc2c(c(OC)c1OC)-c1ccc(SC)c(=O)cc1C(CC(=O)Oc1ccc([N+](=O)[O-])cc1)C2 (stereo not drawn) | 3.85 µM (inactive) | < 0.0444 µM (active) | 0.78 | 1.95 µM (inactive) | 0.0469 µM (active) | 0.19 µM (active) | 0.132 µM (active) | 0.0792 µM (active) | 0.344 µM (active) | 0.286 µM (active) | 0.113 µM (active) | 0.0873 µM (active) | 0.336 µM (active) | < 0.01 µM (active) | 1.34 µM (inactive) | 4.44 µM (inactive) | 0.123 µM (active) | 0.18 µM (active) | 0.226 µM (active) | 0.486 µM (active) | GI50 (M14): 60.7 nM (active); GI50 (RXF 393): 33.1 nM (active); GI50 (OVCAR-5): 6.1 µM (inactive); GI50 (NCI-H226): 128 nM (active); GI50 (OVCAR-3): 53.8 nM (active); GI50 (SK-OV-3): 20.7 nM (active); GI50 (SNB-78): 44 nM (active); GI50 (NCI-H522): 55.1 nM (active); GI50 (SF-268): 137 nM (active); GI50 (HOP-18): > 33.5 µM (inactive); GI50 (DMS-114): 90.2 nM (active); GI50 (CAKI-1): 207 nM (active); GI50 (SK-MEL-5): 72.6 nM (active); GI50 (HCC 2998): 0.119 µM (active); GI50 (HOP-92): 762 nM (active); GI50 (EKVX): 7.29 µM (inactive); GI50 (TK-10): 4.8 µM (inactive); GI50 (KM-20L2): 47.6 nM (active) |
| Oc1cc(-c2ccco2)nc2cc3c(cc12)OCO3 | 34.1 µM (inactive) | 6.61 µM (inactive) | 38.3 | 46.2 µM (inactive) | 35.6 µM (inactive) | > 100 µM (inactive) | 80.9 µM (inactive) | 38.4 µM (inactive) | 29.6 µM (inactive) | 12.5 µM (inactive) | 33.7 µM (inactive) | 39.8 µM (inactive) | 57.8 µM (inactive) | 52.2 µM (inactive) | 27.1 µM (inactive) | 10.9 µM (inactive) | 52.8 µM (inactive) | 44.9 µM (inactive) | 27.7 µM (inactive) | 60 µM (inactive) | GI50 (NCI-H460): 34.3 µM (inactive); GI50 (COLO 205): 17.6 µM (inactive); GI50 (SF-539): 25.7 µM (inactive); GI50 (HT-29): 43.3 µM (inactive); GI50 (Malme-3M): 42.4 µM (inactive); GI50 (SR): 54.3 µM (inactive); GI50 (SW-620): 25.9 µM (inactive); GI50 (LOX IMVI): 50.6 µM (inactive); GI50 (UACC-62): 27.9 µM (inactive); GI50 (RPMI-8226): 40.1 µM (inactive); GI50 (ACHN): 91 µM (inactive); GI50 (SN12C): 55.5 µM (inactive); GI50 (U-251): > 100 µM (inactive); GI50 (DMS-273): 20 µM (inactive); GI50 (DLD-1): 39 µM (inactive); GI50 (LXFL 529): 58.9 µM (inactive); GI50 (HCC 2998): > 100 µM (inactive); GI50 (786-0): 26.5 µM (inactive); GI50 (EKVX): > 100 µM (inactive); GI50 (TK-10): 72.6 µM (inactive) |

Reference: ChEMBL document CHEMBL1201862, “PubChem BioAssay data set” (2004)
